Data on four compounds can be found in publication PMC12851007 (Angewandte Chemie (International Ed. in English), 2025).

Read-outs that look alike come from different tables or passages of the source. Where a SMILES comes first, the peptide text is derived from it.

This test is described as follows: CF dye efflux assay, POPC vesicles. It counts as biochemical. The settings on record: error = SD of fit. The text has this: Time-dep endent fluores cence intensit y traces, I (t), were subsequentl y normalized to fractional intensities, If(t), using equation (1). Therein, I 0 is the intensity just before addition of peptide and I ∞ is the constant intensit y after addition of the calibration cockt ail.
IIf (tt ) = II (tt )−II0II∞ − II0 (1)
The concentration-dependent fractional intensities just before the addition of the calibration cocktail, If, were then normalized to fractional membrane activities, Y, using equation (2).
Therein, If,0 is the fractional intensit y just before addition of the calibration cocktail in absence of peptide and I f,∞ is the constant fractional intensity after addition of the calibration cocktail.
YY = IIf − IIf,0IIf,∞ − IIf,0 (2)
The fractional membrane activities, Y, were subsequently plotted against the peptide concentration, c, and analysed using the Hill equation (3) to obtain the effective molar concentration, EC50, and the Hill coefficient, n. Y0 and Y ma x are the fractional membrane activities in absen ce o f p eptide and at max imal peptide concent rations. For peptides with too little activity to determine Y ma x ex perimentall y, Y max was fixed at 1.0 during fitting.
YY = YY0 + YYmax − YY0nn (3)
Vesicle preparation. 100 µ L of a solution of 25 mg/ml of POPC in chloroform or 200 µ L of a solution of 25 mg/ml of EYPC in chloroform was purged with a stream of nitrogen and dried overnight under high vacuum. The thin lipid film was reh ydrated with 1ml of reh yd ration buffer (= inside buffer, see Table S3 ) b y agitation at room temperature for 30 min and then subjected to 5 freeze- thaw cycles (freezing in liquid nitrogen and thawing at 40 °C).
Subsequently, the liposome suspension was extruded ≥ 15 times through a polycarbonate membrane (pore size 100 nm). Extravesicular components were then removed by size exclusion chromatography using a 1.5 × 12 cm polyprop ylene column (Bio- Rad, German y) with 1.0 g Sephad ex G-50 (medium) as a stationa r y ph ase and the resp ectiv e outside buffer for […]
Ta b l e S 3. Combinations of inside and outside buffer for CF -LUVs.
No. Lipid Inside buffer = rehydration buffer Outside buffer
(1) EYPC 10 mM Hepes, 50 mM CF, pH 7.5 10 mM Hepes, 97 mM NaCl, pH 7.5
(2) POPC 10 mM Hepes, 50 mM CF, pH 7.5 10 mM Hepes, 97 mM NaCl, pH 7.5
(3) POPC 10 mM Hepes, 50 mM CF, pH 7.5 10 mM Hepes, 175 mM glucose, pH 7.5 [a] [a] Glucose b uffers (183 mOsm/L at 25 °C) were used within one week after preparation.
Vesicle quality control. The size distribution of the liposomes was confirmed by DLS to be unimodal and avera ge ve sicles diameters wer e in the ran ge from 115 to 130 nm. The final lipid content in the liposome s uspension after prep ar ation and sep aration w as det ermined b y NMR. CF vesicles are comparabl y leak y and cont ain minor amounts of ex travesi cular CF after a f ew days. When the fluores cence chan ge after vesicl e lys is b y addition of 20 µ L 1.6% (wt/vol) TX-100 was less than a factor of four, the vesicle suspension was no longer used.
Assay protocol. An appropriate volume of the liposome stock solutions was diluted to 2 mL with outside buffer in a 10 ×10 mm quartz glass cuvette to afford a phospholipid concentration of 25 µM. The cuvette was placed into a thermostatted fluorimeter sample holder and gentl y stirred at 300 rpm at (25.0± 0.1) °C. Subsequentl y, the time-dependent change in fluorescence intensity (C F: λ exc = 492 nm, λ em = 517 nm) was recorded during addition of 20 µL peptide stock solution of var ying concentrations at 60 s and 20µ L of a calibration cocktail (1. 6% […]
intensities, If(t), using equation (1) and the concentration- dependent fractional intensities just before the addition of th e calibration co cktail, I f, w ere then normaliz ed to fr actional membran e activities, Y, using equation (2). The fractional membrane activities, Y, were subsequently plotted against the peptide concentration, c, and anal ysed using the Hill equation (3) to obtain […]

Setting [1] is: single-channel, 25 µM POPC⸧CF-LUVs, inside 10 mM Hepes, 50 mM CF, pH 7.5, outside 10 mM Hepes, 175 mM glucose, pH 7.5, n = 1, read-out: EC50, CF assay in glucose-containing buffer.

In the case of `CC[C@H](C)[C@H](NC(=O)[C@H](CCCCN)NC(=O)[C@@H](NC(=O)[C@@H](N)CCC(N)=O)[C@@H](C)CC)C(=O)N[C@@H](Cc1c[nH]c2ccccc12)C(=O)N[C@@H](Cc1ccccc1)C(=O)N[C@@H](CCC(N)=O)C(=O)N[C@@H](CC(N)=O)C(=O)N[C@@H](CCCNC(=N)N)C(=O)N[C@@H](CCCNC(=N)N)C(=O)N[C@@H](CCSC)C(=O)N[C@@H](CCCCN)C(=O)N[C@@H](Cc1c[nH]c2ccccc12)C(=O)N[C@@H](CCCCN)C(=O)N[C@@H](CCCCN)C(=O)O` (H-QIKIWFQNRRMKWKK-OH), the “EC50, CF assay, isosmotic” value (25 µM POPC⸧CF-LUVs diluted into 10 mM Hepes, 97 mM NaCl, pH 7.5, 25 °C, fractional activity at 590 s, n = 1 (Table S6, Figures S17, S19)) is “too low to determine”. Under “25 µM lipid, POPC⊃CF-LUVs, 10 mM Hepes, 97 mM NaCl, pH 7.5, 25 °C, fractional activity at 590 s, Hill fit, n = 1 (Table S5)”, the “EC50, CF assay, POPC” value is “too low to determine”.

The EC50 is the concentration at which the effect is half-maximal. `CC(C)C[C@H](NC(=O)[C@H](CC(C)C)NC(=O)[C@H](CCCNC(=N)N)NC(=O)[C@@H](N)CC(C)C)C(=O)N[C@@H](CCCNC(=N)N)C(=O)N[C@@H](Cc1c[nH]c2ccccc12)C(N)=O` [LRLLRW] (H-LRLLRW-NH2): the EC50 under setting [1] stood at 101 ± 9 µM.

In the case of `CC(C)[C@H](NC(=O)[C@H](CCCCN)NC(=O)[C@H](CCCNC(=N)N)NC(=O)[C@H](CCCCN)NC(=O)[C@H](CCCCN)NC(=O)[C@H](CCCCN)NC(=O)[C@@H]1CCCN1C(=O)[C@H](CCC(N)=O)NC(=O)[C@H](CO)NC(=O)[C@H](Cc1c[nH]c2ccccc12)NC(=O)[C@H](CC(=O)O)NC(=O)[C@@H](NC(=O)[C@H](Cc1c[nH]c2ccccc12)NC(=O)[C@H](Cc1c[nH]c2ccccc12)NC(=O)[C@@H](NC(=O)[C@H](CC(=O)O)NC(=O)[C@H](Cc1c[nH]c2ccccc12)NC(=O)[C@H](Cc1c[nH]c2ccccc12)NC(=O)[C@@H](NC(=O)[C@H](CC(=O)O)NC(=O)[C@@H](N)CCCCN)[C@@H](C)O)[C@@H](C)O)[C@@H](C)O)C(=O)O` [Pep‐1] (H-KDTWWDTWWTDWSQPKKKRKV-OH), the EC50 was 114 ± 5 µM (25 µM lipid, POPC⊃CF-LUVs, 10 mM Hepes, 97 mM NaCl, pH 7.5, 25 °C, fractional activity at 590 s, Hill fit, n = 1 (Table S5), read-out: EC50, CF assay, POPC) and 540 ± 90 µM under setting [1].

For `CC[C@H](C)[C@H](NC(=O)[C@H](CCCCN)NC(=O)[C@H](CCCCN)NC(=O)[C@H](C)NC(=O)[C@H](CC(C)C)NC(=O)[C@H](C)NC(=O)[C@H](C)NC(=O)[C@H](CC(C)C)NC(=O)[C@H](C)NC(=O)[C@H](CCCCN)NC(=O)[C@H](CC(C)C)NC(=O)[C@H](CC(N)=O)NC(=O)[C@@H](NC(=O)[C@H](CCCCN)NC(=O)CNC(=O)[C@H](CC(C)C)NC(=O)[C@H](CC(C)C)NC(=O)[C@H](Cc1ccc(O)cc1)NC(=O)CNC(=O)[C@H](C)N)[C@@H](C)CC)C(=O)N[C@@H](CC(C)C)C(=O)O` [TP10], the EC50 under setting [1] came out at 0.12 ± 0.02 µM.
